The record followed here is patent US11945784B2, “IRE1 small molecule inhibitors” (Cornell University, priority 2018, dated 2024).

Each structure is given as a SMILES string.

T1 sequence (O75460 19-977): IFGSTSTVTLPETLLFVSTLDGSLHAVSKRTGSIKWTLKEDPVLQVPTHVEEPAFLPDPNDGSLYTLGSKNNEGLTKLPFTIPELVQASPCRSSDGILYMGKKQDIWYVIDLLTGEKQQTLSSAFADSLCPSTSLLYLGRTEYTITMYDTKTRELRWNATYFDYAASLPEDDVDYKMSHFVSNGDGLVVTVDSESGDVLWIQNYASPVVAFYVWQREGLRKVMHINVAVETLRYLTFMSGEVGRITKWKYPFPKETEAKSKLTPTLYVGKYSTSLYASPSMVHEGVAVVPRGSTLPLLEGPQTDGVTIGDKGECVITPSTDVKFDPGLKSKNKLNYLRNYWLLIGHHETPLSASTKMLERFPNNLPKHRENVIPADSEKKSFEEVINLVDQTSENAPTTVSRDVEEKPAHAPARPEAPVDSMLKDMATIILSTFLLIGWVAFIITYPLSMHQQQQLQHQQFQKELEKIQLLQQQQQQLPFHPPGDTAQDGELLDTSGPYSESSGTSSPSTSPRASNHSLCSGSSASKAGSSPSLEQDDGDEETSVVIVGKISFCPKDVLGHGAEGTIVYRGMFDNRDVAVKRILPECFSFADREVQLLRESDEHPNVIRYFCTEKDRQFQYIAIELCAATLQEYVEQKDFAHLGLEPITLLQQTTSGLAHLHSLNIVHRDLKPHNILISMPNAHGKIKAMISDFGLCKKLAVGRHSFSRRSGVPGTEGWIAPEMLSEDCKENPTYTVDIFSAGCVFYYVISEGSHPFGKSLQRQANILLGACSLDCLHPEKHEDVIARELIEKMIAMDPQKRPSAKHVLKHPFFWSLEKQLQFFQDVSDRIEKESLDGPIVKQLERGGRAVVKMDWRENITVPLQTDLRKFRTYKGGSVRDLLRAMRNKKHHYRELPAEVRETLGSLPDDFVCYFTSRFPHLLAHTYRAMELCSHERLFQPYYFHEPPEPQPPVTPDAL

In the first test the target is T1, IRE1α (Homo sapiens (Human), UniProt O75460). As to the kind of experiment: In vitro FRET assay. The class given is biochemical. As to conditions: XBP1 RNA probe. The procedure:
In vitro FRET assay was performed to evaluate the ability of select compounds to inhibit IRE1, the results of which are summarized in Table 3. To perform the in vitro FRET assay, 1× complete assay buffer (CAB; […], 50 mM sodium citrate pH 7.15, 1 mM magnesium acetate, 0.02% tween 20) was used to dilute SignalChem IRE1α protein to a final concentration of 2 nM. Selected compounds were serially diluted with DMSO in a non-binding black 384-well plate for a total of 15 ul in each well. 2 ul of the serially diluted compound or DMSO control were then added to new wells containing 98 ul of 1×CAB, for a total volume of 100 ul, 10 ul of which were then transferred to wells of a new plate. 5 ul of the diluted IRE1α was then added to each well. 5 ul of a […] XBP1 RNA probe was then added to each well. Fluorescence was then read over 30 minutes in kinetic mode (485/515 nm).
Two RNA probes were used, XBP1 wildtype (SEQ ID NO: 2) which is able to be spliced by active IRE1α or XBP1 mutant (SEQ ID NO: 3) which is unable to be spliced. Each probe contained a 5′ 6-FAM modification and a 3′ IOWA Black FQ modification.
A second FRET assay was performed to assess ATP-mediated inhibition. In this case, compounds and IRE1α were prepared and combined as discussed above, with the addition of ATP up to 1 mM final concentration. This mixture was incubated at room temperature for 60 minutes and then 5 ul of 400 nM XBP1 wildtype or mutant RNA probe was added. Plates were then read over 30 minutes in kinetic mode (485/515 nm) and rate of fluorescence increase calculated for different compound dilutions to determine IC50 (Table 3).
Consider `Cc1cc(NS(=O)(=O)c2ccccc2Cl)ccc1CCc1cnc(NC2CCC(N)CC2)nc1` (stereo not shown) [Compound 6, N-(4-(2-(2-(((1r,4r)-4-aminocyclohexyl)amino)pyrimidin-5-yl)ethyl)-3-methylphenyl)-2-chlorobenzenesulfonamide], for which the IC50 is ≤ 1 nM. On the same count and under the same terms, for `N[C@H]1CC[C@H](Nc2ncc(CCc3ccc(NS(=O)(=O)c4ccccc4Cl)nn3)cn2)CC1` [Compound 7, N-(6-(2-(2-(((1r,4r)-4-aminocyclohexyl)amino)pyrimidin-5-yl)ethyl)pyridazin-3-yl)-2-chlorobenzenesulfonamide] the value was 1 to 5 nM; for `COc1nc(NS(=O)(=O)c2ccccc2Cl)ccc1/C=C/c1cnc(NC2CCC(O)CC2)nc1` (stereo not shown) [Compound 11, 2-chloro-N-(5-((E)-2-(2-(((1r,4r)-4-hydroxycyclohexyl)amino)pyrimidin-5-yl)vinyl)-6-methoxypyridin-2-yl)benzenesulfonamide], 1 to 5 nM; for `COc1nc(NS(=O)(=O)c2ccccc2Cl)ccc1CCc1cnc(NC2CCC(O)CC2)nc1` (stereo not shown) [Compound 12, 2-chloro-N-(5-(2-(2-(((1r,4r)-4-hydroxycyclohexyl)amino)pyrimidin-5-yl)ethyl)-6-methoxypyridin-2-yl)benzenesulfonamide], 5 to 50 nM. The same measure, in the same setting: under `COc1nc(NS(=O)(=O)c2ccccc2Cl)ccc1CCc1ccc(NC2CCC(N)CC2)nc1` (stereo not shown) [Compound 13, N-(5-(2-(6-(((1r,4r)-4-aminocyclohexyl)amino)pyridin-3-yl)ethyl)-6-methoxypyridin-2-yl)-2-chlorobenzenesulfonamide] stands 1 to 5 nM.

The next test deals with T1, IRE1α. As to the kind of experiment: In vitro luciferase assay (IRE1α Endoribonuclease Nanoluciferase Assay). As to conditions: 293T cells, XBP1 luciferase reporter. Type of test: cell-based. The procedure:
Compounds disclosed herein were assessed for disruption of IRE-1 signaling using a IRE1α Endoribonuclease Nanoluciferase Assay. Briefly, 2.5×10^6 293T cells were seeded in a 10 cm^2 tissue culture plate. About 24 hours later, the cells were transfected with Effectene. In a 15 mL Tube, the following was added: 2 μg XBP1 luciferase reporter plasmid (PGK-Luc2-P2A-XBP1u-Nanoluciferase-PEST); 300 μl EC buffer; and 16 μl Enhancer, followed by incubation at room temp for 5 minutes. Next, 60 μl Effectene (Qiagen 301427) was added, followed by incubation at room temperature for 10 minutes. 2.6 mL cDMEM media was added. Old media was aspirated from the cells, followed by addition of 7 mL fresh media. Full transfection mixture was added dropwise to cells. Cells were incubated for 6 hours, followed by trypsinization, centrifugation and resuspension in 11 mL media. 100 uL of cells were plated per a well in a 96 well plate. A day later, ER stressors of choice+/−inhibitors were added. To harvest, media was aspirated from cells completely, then 50 uL 1× passive lysis buffer (Promega: E1941) was added per well and put on shaker (300 rpm) for 30 minutes at room temperature. Cells were centrifuged, and 15 uL sample per well was added to a new, opaque white 384 well plate (Corning 3570). 15 uL OneGlo (nanoluciferase kit, Promega N1630) was added. Plates were spun down, placed on shaker (300 rpm) for 10 minutes. Plates were read on luminometer, 1000 ms integration time per well. 15 uL Stop and Glo (nanoluciferase kit) was added. Plates were spun down, placed on shaker (300 rpm) for 10 minutes. Plates were read on luminometer, 1000 ms second integration time per well. Recordings are provided below in Table 4
(In general: In a reporter assay the amount or activity of a reporter protein is the signal.)
Turning to `COc1nc(NS(=O)(=O)c2cccc(F)c2Cl)ccc1/C=C/c1cnc(NC2CCC(N(C)C)CC2)nc1` (single isomer, unassigned) [Compound 53, 2-chloro-N-(5-((E)-2-(2-(((1r,4r)-4-(dimethylamino)cyclohexyl)amino)pyrimidin-5-yl)vinyl)-6-methoxypyridin-2-yl)-3-fluorobenzenesulfonamide], the EC50 lay in the range of 50 to 100 nM.

Regarding `NC1CCC(Nc2ncc(/C=C/c3ccc(NS(=O)(=O)c4ccccc4Cl)c(F)c3)cn2)CC1` (stereo not shown) [Compound 3, N-(4-((E)-2-(2-(((1r,4r)-4-aminocyclohexyl)amino)pyrimidin-5-yl)vinyl)-2-fluorophenyl)-2-chlorobenzenesulfonamide], the EC50 was ≤ 5 nM. In turn, `CN(C)C1CCC(Nc2ncc(/C=C/c3ccc(NS(=O)(=O)c4ccccc4Cl)nn3)cn2)CC1` (stereo not shown) [Compound 52, 2-chloro-N-(6-((E)-2-(2-(((1r,4r)-4-(dimethylamino)cyclohexyl)amino)pyrimidin-5-yl)vinyl)pyridazin-3-yl)benzenesulfonamide] registered an EC50 of 5 to 50 nM. As to `COc1nc(NS(=O)(=O)c2ccccc2Cl)c(F)cc1/C=C/c1cnc(NC2CCC(N)CC2)nc1` (stereo not shown) [Compound 54, N-(5-((E)-2-(2-(((1r,4r)-4-aminocyclohexyl)amino)pyrimidin-5-yl)vinyl)-3-fluoro-6-methoxypyridin-2-yl)-2-chlorobenzenesulfonamide], the EC50 fell in the range of 50 to 100 nM. The same measure, in the same setting: for `COc1nc(NS(=O)(=O)c2cnccc2Cl)ccc1/C=C/c1cnc(NC2CCC(N(C)C)CC2)nc1` (stereo not shown) [Compound 56, 4-chloro-N-(5-((E)-2-(2-(((1r,4r)-4-(dimethylamino)cyclohexyl)amino)pyrimidin-5-yl)vinyl)-6-methoxypyridin-2-yl)pyridine-3-sulfonamide] the value was 50 to 100 nM.

Turning to `COc1nc(NS(=O)(=O)c2ccccc2Cl)ccc1/C=C/c1cnc(NC2CCC(N3CCOCC3)CC2)nc1` (stereo not shown) [Compound 57, 2-chloro-N-(6-methoxy-5-((E)-2-(2-(((1r,4r)-4-morpholinocyclohexyl)amino)pyrimidin-5-yl)vinyl)pyridin-2-yl)benzenesulfonamide], the EC50 is ≤ 5 nM. Still for that read-out and setting: under `Cc1nc(NS(=O)(=O)c2ccccc2Cl)c(F)cc1/C=C/c1cnc(NC2CCC(N)CC2)nc1` (stereo not shown) [Compound 58, N-(5-((E)-2-(2-(((1r,4r)-4-aminocyclohexyl)amino)pyrimidin-5-yl)vinyl)-3-fluoro-6-methylpyridin-2-yl)-2-chlorobenzenesulfonamide] stands 50 to 100 nM; under `CNC1CCC(Nc2ncc(/C=C/c3cc(F)c(NS(=O)(=O)c4ccccc4Cl)nc3OC)cn2)CC1` (stereo not shown) [Compound 59, 2-chloro-N-(3-fluoro-6-methoxy-5-((E)-2-(2-(((1r,4r)-4-(methylamino)cyclohexyl)amino)pyrimidin-5-yl)vinyl)pyridin-2-yl)benzenesulfonamide], 50 to 100 nM; under `COc1nc(NS(=O)(=O)c2ccccc2Cl)ccc1/C=C/c1cnc(NC2CCC(N3CCCCC3)CC2)nc1` (stereo not shown) [Compound 60, 2-chloro-N-(6-methoxy-5-((E)-2-(2-(((1r,4r)-4-(piperidin-1-yl)cyclohexyl)amino)pyrimidin-5-yl)vinyl)pyridin-2-yl)benzenesulfonamide], ≤ 5 nM.

Turning to `CN(C)C1CCC(Nc2ncc(/C=C/c3ccc(NS(=O)(=O)c4ccc(F)cc4Cl)nc3)cn2)CC1` (stereo not shown) [Compound 61, 2-chloro-N-(5-((E)-2-(2-(((1r,4r)-4-(dimethylamino)cyclohexyl)amino)pyrimidin-5-yl)vinyl)pyridin-2-yl)-4-fluorobenzenesulfonamide], the EC50 was ≤ 5 nM. Still for that read-out and setting: under `Cc1nc(NS(=O)(=O)c2cnccc2Cl)ccc1/C=C/c1cnc(NC2CCC(N(C)C)CC2)nc1` (stereo not shown) [Compound 62, 4-chloro-N-(5-((E)-2-(2-(((1r,4r)-4-(dimethylamino)cyclohexyl)amino)pyrimidin-5-yl)vinyl)-6-methylpyridin-2-yl)pyridine-3-sulfonamide] stands 50 to 100 nM; under `CN(C)C1CCC(Nc2ncc(/C=C/c3ccc(NS(=O)(=O)c4cccc(Cl)c4Cl)nc3)cn2)CC1` (stereo not shown) [Compound 63, 2,3-dichloro-N-(5-((E)-2-(2-(((1r,4r)-4-(dimethylamino)cyclohexyl)amino)pyrimidin-5-yl)vinyl)pyridin-2-yl)benzenesulfonamide], ≤ 5 nM.

As to `COc1nc(NS(=O)(=O)c2ccccc2Cl)ccc1/C=C/c1cnc(NC2CCC(N3CCSCC3)CC2)nc1` (stereo not shown) [Compound 64, 2-chloro-N-(6-methoxy-5-((E)-2-(2-(((1r,4r)-4-thiomorpholinocyclohexyl)amino)pyrimidin-5-yl)vinyl)pyridin-2-yl)benzenesulfonamide], the EC50 was ≤ 5 nM. On to `COc1cc(NS(=O)(=O)c2cnccc2Cl)ccc1/C=C/c1cnc(NC2CCC(N(C)C)CC2)nc1` (stereo not shown) [Compound 65, 4-chloro-N-(4-((E)-2-(2-(((1r,4r)-4-(dimethylamino)cyclohexyl)amino)pyrimidin-5-yl)vinyl)-3-methoxyphenyl)pyridine-3-sulfonamide], for which the EC50 was ≤ 5 nM. Still for that read-out and setting: for `COc1c(/C=C/c2cnc(NC3CCC(N(C)C)CC3)nc2)ccc(NS(=O)(=O)c2ccccc2Cl)c1F` (stereo not shown) [Compound 66, 2-chloro-N-(4-((E)-2-(2-(((1r,4r)-4-(dimethylamino)cyclohexyl)amino)pyrimidin-5-yl)vinyl)-2-fluoro-3-methoxyphenyl)benzenesulfonamide] the value was ≤ 5 nM.

`COc1cc(NS(=O)(=O)c2ccccc2Cl)c(F)cc1/C=C/c1cnc(NC2CCC(N(C)C)CC2)nc1` (stereo not shown) [Compound 67, 2-chloro-N-(4-((E)-2-(2-(((1r,4r)-4-(dimethylamino)cyclohexyl)amino)pyrimidin-5-yl)vinyl)-2-fluoro-5-methoxyphenyl)benzenesulfonamide]: the EC50 was ≤ 5 nM. On the same count and under the same terms, for `CN(C)C1CCC(Nc2ncc(/C=C/c3ccc(NS(=O)(=O)c4cccc(F)c4Cl)nc3)cn2)CC1` (stereo not shown) [Compound 68, 2-chloro-N-(5-((E)-2-(2-(((1r,4r)-4-(dimethylamino)cyclohexyl)amino)pyrimidin-5-yl)vinyl)pyridin-2-yl)-3-fluorobenzenesulfonamide] the value was ≤ 5 nM.

In general, IC50 refers to the concentration needed to halve the response being measured. Read a low IC50 as greater potency. What is called EC50 is the concentration giving half of the maximal effect.
